# Measurements published in ChEMBL document CHEMBL1862790, “Optimisation of fenarimol series for the treatment of Chagas disease”.
# “And” between values parts separate entries of the source, which are not always exact repeats. Equal entries are not always repeated.
# Key:
# [1] = DNDI: Cytotoxicity against L-6 rat myoblasts from skeletal muscle cells; conditions: L6 rat skeletal muscle myoblast cells
# Trypanosoma cruzi [2] = test: microbe, parasite or virus in culture; type: functional, Tulahuen LacZ, Clone C4
# Trypanosoma cruzi [3] = test: microbe, parasite or virus in culture; type: functional, organism-based, Tulahuen LacZ, Clone C4
# [4] = Trypanosoma cruzi, Tulahuen LacZ, Clone C4
IC90 (Trypanosoma cruzi [2]; [4]),IC50 (Trypanosoma cruzi [3]; [4]),IC90 (Trypanosoma cruzi [2]),IC50 (Trypanosoma cruzi [3]),SMILES,IC50 ([1]; IC50),IC50 [1]
> 10000 nM,> 10000 nM,,,O=C(NC(c1ccc(C(F)(F)F)cc1)c1cnccn1)C1CC1 (stereo not drawn),> 100000 nM,
67 nM,24 nM,,,Cc1ccc(C(O)(c2ccc(Cl)cc2)c2cccnc2)s1 (stereo not drawn),> 100000 nM,
64 nM,25.6 nM,,,Fc1cc(Cl)ccc1C(NC1CCN(c2ccc(F)c(C(F)(F)F)c2)CC1)c1cccnc1 (stereo not drawn),58600 nM,
780 nM,280 nM,,,O=S(=O)(NC1CCN(C(c2ccc(C(F)(F)F)cc2)c2cnccn2)CC1)C1CCCCC1 (stereo not drawn),57900 nM,
700 nM,280 nM,,,CC(C)CC(=O)NC1CCN(C(c2ccc(C(F)(F)F)cc2)c2cnccn2)CC1 (stereo not drawn),> 100000 nM,
5230 nM,328 nM,,,Cc1cccc(C(O)(c2ccc(Cl)cc2)c2cncnc2)c1 (stereo not drawn),68400 nM,
64.5 nM,17 nM,,,Fc1cc(Cl)ccc1C(NC1CCN(c2ccccc2C(F)(F)F)CC1)c1cccnc1 (stereo not drawn),57000 nM,
30 nM,6 nM,,,O=C(Nc1ccc(Cl)cc1)NC1CCN(C(c2ccc(Cl)cc2)c2cccnc2)CC1 (stereo not drawn),21000 nM,
20 nM,4.5 nM,,,CC(C)c1ccc(C(O)(c2ccc(C(F)(F)F)cc2)c2cncnc2)cc1 (stereo not drawn),56500 nM,
> 1000 nM,> 1000 nM,,,O=S(=O)(Cc1ccccc1)NC(c1ccc(C(F)(F)F)cc1)c1cnccn1 (stereo not drawn),> 100000 nM,
850 nM,470 nM,,,O=C(C1CC1)N1CCC(NC(c2ccc(C(F)(F)F)cc2)c2cnccn2)CC1 (stereo not drawn),> 100000 nM,
> 10000 nM,> 10000 nM,,,Nc1nccnc1C(O)(c1ccc(Cl)cc1)c1ccc(Cl)cc1,63400 nM,
142 nM,67 nM,,,O=C(c1ccccc1)N1CC(CNC(c2ccc(C(F)(F)F)cc2)c2cccnc2)C1 (stereo not drawn),> 100000 nM,
110 nM,32 nM,,,CN(C)C(=O)NC1CCN(C(c2ccc(Cl)cc2)c2cccnc2)CC1 (stereo not drawn),> 100000 nM,
180 nM,72 nM,,,O=S(=O)(Cc1ccccc1)N1CCN(C(c2cncnc2)c2ccc(Cl)cc2F)CC1 (stereo not drawn),62400 nM,
> 10000 nM,> 10000 nM,,,Cn1cccc1C(O)(c1ccc(Cl)cc1)c1ccc(Cl)cc1,55800 nM,
100 nM,36 nM,,,CCN(CC)C(=O)N1CCC(NC(c2ccc(Cl)cc2)c2cccnc2)CC1 (stereo not drawn),> 100000 nM,
570 nM,265 nM,,,Fc1cc(Cl)ccc1C(NC1CCN(c2nc3ccccc3s2)CC1)c1cccnc1 (stereo not drawn),> 100000 nM,
100 nM,45 nM,,,COc1ccccc1N1CCN(C(c2cccnc2)c2ccc(Cl)cc2F)CC1 (stereo not drawn),59800 nM,
190 nM,59 nM,,,CC(C)(C)OC(=O)NC1CCN(C(c2cncnc2)c2ccc(Cl)cc2F)CC1 (stereo not drawn),> 100000 nM,
27.5 nM,11 nM,,,FC(F)(F)c1ccc(N2CCC(NC(c3ccc(Cl)cc3)c3cccnc3)CC2)cc1 (stereo not drawn),53500 nM,
652 nM,332 nM,,,O=C(C1CC1)N1CCN(C(c2ccc(C(F)(F)F)cc2)c2cncnc2)CC1 (stereo not drawn),> 100000 nM,
455 nM,57 nM,,,O=C(c1nccs1)N1CCC(NC(c2ccc(C(F)(F)F)cc2)c2cccnc2)CC1 (stereo not drawn),> 100000 nM,

IC90 (Trypanosoma cruzi [2]; [4]),IC50 (Trypanosoma cruzi [3]; [4]),IC90 (Trypanosoma cruzi [2]),IC50 (Trypanosoma cruzi [3]),SMILES,IC50 ([1]; IC50),IC50 [1]
950 nM,500 nM,,,O=C(c1ccccc1)N1CCN(C(c2ccc(Cl)cc2)c2cncnc2)CC1 (stereo not drawn),75500 nM,
173 nM,40 nM,,,O=C1NCCN1C1CCN(C(c2ccc(Cl)cc2)c2cccnc2)CC1 (stereo not drawn),67800 nM,
88 nM,46 nM,,,FC(F)(F)Cn1cc(C(NC2CCN(c3ccc(C(F)(F)F)cc3)CC2)c2cccnc2)cn1 (stereo not drawn),71200 nM,
960 nM,,820 nM and 930 nM and 520 nM,490 nM [middle of 4 runs],CC(=O)N1CCN(C(c2ccc(Cl)cc2)c2cccnc2)CC1 (stereo not drawn),> 100000 nM,
10000 nM,1150 nM,,,CC(C)CC(O)(c1ccc(Cl)cc1)c1cncnc1 (stereo not drawn),> 100000 nM,
620 nM,220 nM,,,O=S(=O)(Cc1ccccc1)N1CCN(C(c2ccc(Cl)cc2)c2cncnc2)CC1 (stereo not drawn),63000 nM,
10000 nM,> 10000 nM,,,CON=C(c1ccc(Cl)cc1)c1ccc(Cl)cc1,> 100000 nM,
> 10000 nM,> 10000 nM,,,CC(C)C(=O)NC(c1ccc(C(F)(F)F)cc1)c1cnccn1 (stereo not drawn),> 100000 nM,
930 nM,190 nM,,,CS(=O)(=O)N1CCC(NC(c2ccc(C(F)(F)F)cc2)c2cccnc2)CC1 (stereo not drawn),> 100000 nM,
270 nM,100 nM,,,CC(C)c1ccc(S(=O)(=O)N2CCC(NC(c3ccc(C(F)(F)F)cc3)c3cnccn3)CC2)cc1 (stereo not drawn),22000 nM,
260 nM,60 nM,,,CC(C)(C)OC(=O)NC1CCN(C(c2ccc(Cl)cc2)c2cncnc2)CC1 (stereo not drawn),> 100000 nM,
,,100 nM and 320 nM,30 nM and 78 nM,NC(=O)c1cccc(C(O)(c2ccc(Cl)cc2)c2cccnc2)c1 (stereo not drawn),> 100000 nM,
300 nM,150 nM,,,O=C(C1CCCCC1)N1CCN(C(c2cncnc2)c2ccc(Cl)cc2F)CC1 (stereo not drawn),> 100000 nM,
670 nM,236 nM,,,Cc1cc(C(=O)NC2CCN(C(c3ccc(C#N)cc3)c3cccnc3)CC2)[nH]n1 (stereo not drawn),> 100000 nM,
> 10000 nM,7420 nM,,,OC(c1ccc(Cl)cc1)(c1ccc(C(F)(F)F)cc1)c1nnc[nH]1 (stereo not drawn),> 100000 nM,
7490 nM,2840 nM,,,OC(c1ccc(Cl)cc1)(c1ccc(C(F)(F)F)cc1)c1ccc2ncccc2c1 (stereo not drawn),56300 nM,
> 1000 nM,768 nM,,,CS(=O)(=O)N1CCN(C(c2ccc(C(F)(F)F)cc2)c2cncnc2)CC1 (stereo not drawn),> 100000 nM,
98 nM,66 nM,,,Clc1ccc(CN2CCC(NC(c3ccc(Cl)cc3)c3cccnc3)CC2)cc1 (stereo not drawn),20300 nM,
> 1000 nM,860 nM,,,O=C(NC(c1ccc(C(F)(F)F)cc1)c1cnccn1)c1ccc(Cl)cc1 (stereo not drawn),61800 nM,
44 nM,19.5 nM,,,Cc1nc(C(=O)NC2CCN(C(c3ccc(C(F)(F)F)cc3)c3cccnc3)CC2)co1 (stereo not drawn),56400 nM,
36 nM,7 nM,,,CCN(CC)C(=O)N1CCC(NC(c2ccc(OC(C)C)cc2)c2cccnc2)CC1 (stereo not drawn),> 100000 nM,
> 1000 nM,> 1000 nM,,,CO/N=C(\c1ccc(Cl)cc1)c1cccnc1,> 100000 nM,
240 nM,30 nM,,,CS(=O)(=O)Nc1ccc(C(O)(c2ccc(Cl)cc2)c2cccnc2)cc1 (stereo not drawn),> 100000 nM,

IC90 (Trypanosoma cruzi [2]; [4]),IC50 (Trypanosoma cruzi [3]; [4]),IC90 (Trypanosoma cruzi [2]),IC50 (Trypanosoma cruzi [3]),SMILES,IC50 ([1]; IC50),IC50 [1]
> 1000 nM,> 1000 nM,,,CON=C(c1ccc(C(F)(F)F)cc1)c1cnccn1,> 100000 nM,
92 nM,53.5 nM,,,CCn1cc(C(NC2CCN(c3ccc(C(F)(F)F)cc3)CC2)c2cccnc2)cn1 (stereo not drawn),> 100000 nM,
6470 nM,1140 nM,,,CCS(=O)(=O)NC1CCN(C(c2ccc(C(F)(F)F)cc2)c2cnccn2)CC1 (stereo not drawn),> 100000 nM,
> 1000 nM,> 1000 nM,,,CC(C)Oc1ccc(C(c2cccnc2)N(C(=O)C2CC2)C2CCN(C(=O)C3CC3)CC2)cc1 (stereo not drawn),> 100000 nM,
> 1000 nM,850 nM,,,CC(C)C(=O)N1CCC(NC(c2cnccn2)c2ccc(F)cc2F)CC1 (stereo not drawn),> 100000 nM,
298 nM,174 nM,,,N#Cc1ccc(C(c2cccnc2)N2CCC(NC(=O)c3cscn3)CC2)cc1 (stereo not drawn),> 100000 nM,
830 nM,320 nM,,,O=C(N1CCN(C(c2cccnc2)c2ccc(Cl)cc2F)CC1)C(F)(F)F (stereo not drawn),> 100000 nM,
150 nM,48 nM,,,Cc1cc(C(=O)NC2CCN(C(c3ccc(C(F)(F)F)cc3)c3cccnc3)CC2)[nH]n1 (stereo not drawn),73100 nM,
337 nM,139 nM,,,CC(C)CC(O)(c1ccc(Cl)cc1)c1cnccn1 (stereo not drawn),> 100000 nM,
832 nM,241 nM,,,O=C(c1cscn1)N1CCC(NC(c2cccnc2)c2ccc(Cl)cc2F)CC1 (stereo not drawn),> 100000 nM,
26.5 nM,13.5 nM,,,Cc1cc(C(=O)NC2CCN(C(c3ccc(C(F)(F)F)cc3)c3cccnc3)CC2)n(C(C)(C)C)n1 (stereo not drawn),> 100000 nM,
154 nM,78 nM,,,OC(c1ccc(Cl)cc1)(c1cccnc1)c1ccsc1 (stereo not drawn),> 100000 nM,
996 nM,585 nM,,,CC(C)(C)NC(=O)N1CCC(NC(c2ccc(C#N)cc2)c2cccnc2)CC1 (stereo not drawn),> 100000 nM,
4870 nM,2140 nM,,,CON=C(Cc1ccc(Cl)cc1Cl)c1cccnc1,91300 nM,
> 100 nM,59 nM,,,FC(F)(F)c1ccc(C(c2cccnc2)N2CCC(Oc3cccc(Cl)c3)CC2)cc1 (stereo not drawn),61200 nM,
2720 nM,830 nM,,,CCNC(=O)N1CCN(C(c2ccc(Cl)cc2)c2cncnc2)CC1 (stereo not drawn),> 100000 nM,
702 nM,95 nM,,,CC(C)(C)OC(=O)N1CC(NC(c2ccc(C(F)(F)F)cc2)c2cccnc2)C1 (stereo not drawn),62500 nM,
44.5 nM,21 nM,,,N#Cc1cnc(N2CCC(NC(c3cccnc3)c3ccc(Cl)cc3F)CC2)s1 (stereo not drawn),55700 nM,
92.5 nM,10.5 nM,,,FC(F)(F)c1ccc(C(NC2CCN(c3ncccn3)CC2)c2cccnc2)cc1 (stereo not drawn),55100 nM,
33.5 nM,12.5 nM,,,Fc1cc(Cl)ccc1C(NC1CCN(c2c(F)cccc2F)CC1)c1cccnc1 (stereo not drawn),56300 nM,
770 nM,210 nM,,,O=S(=O)(Cc1ccccc1)N1CCC(NC(c2ccc(C(F)(F)F)cc2)c2cnccn2)CC1 (stereo not drawn),> 100000 nM,
4980 nM,1380 nM,,,CS(=O)(=O)NC1CCN(C(c2cnccn2)c2ccc(F)cc2F)CC1 (stereo not drawn),> 100000 nM,

SMILES,IC90 (Trypanosoma cruzi [2]; [4]),IC50 (Trypanosoma cruzi [3]; [4]),IC90 (Trypanosoma cruzi [2]),IC50 (Trypanosoma cruzi [3]),IC50 ([1]; IC50),IC50 [1]
OC(c1ccc(Cl)cc1)(c1cccnc1)c1c(F)cccc1Cl (stereo not drawn),469 nM,172 nM,,,,66900 nM
